Results reported in PubChem BioAssay (NCI).
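The concentration for 50% growth inhibition is given as GI50. TGI marks complete inhibition of growth.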

Key:
Test in all cases: NCI anticancer screen, dose series, 384-well format
786-0 renal = tested on: 786-0 renal
A498 renal = tested on: A498 renal
A549 NSCLC = tested on: A549 NSCLC
ACHN renal = tested on: ACHN renal
BT-549 breast = tested on: BT-549 breast
CAKI-1 renal = tested on: CAKI-1 renal
COLO 205 colon = tested on: COLO 205 colon
DU-145 prostate = tested on: DU-145 prostate
EKVX NSCLC = tested on: EKVX NSCLC
HCC-2998 colon = tested on: HCC-2998 colon
HCT-15 colon = tested on: HCT-15 colon
HL-60(TB) leukemia = tested on: HL-60(TB) leukemia
HOP-62 NSCLC = tested on: HOP-62 NSCLC
HOP-92 NSCLC = tested on: HOP-92 NSCLC
HS 578T breast = tested on: HS 578T breast
HT29 colon = tested on: HT29 colon
IGROV1 ovarian = tested on: IGROV1 ovarian
K-562 leukemia = tested on: K-562 leukemia
KM12 colon = tested on: KM12 colon
LOX IMVI melanoma = tested on: LOX IMVI melanoma
M14 melanoma = tested on: M14 melanoma
MALME-3M melanoma = tested on: MALME-3M melanoma
MCF7 breast = tested on: MCF7 breast
MDA-MB-231 breast = tested on: MDA-MB-231 breast
MDA-MB-435 melanoma = tested on: MDA-MB-435 melanoma
MDA-MB-468 breast = tested on: MDA-MB-468 breast
MOLT-4 leukemia = tested on: MOLT-4 leukemia
NCI-H226 lung = tested on: NCI-H226 lung
NCI-H23 lung = tested on: NCI-H23 lung
NCI-H322M lung = tested on: NCI-H322M lung
NCI-H460 NSCLC = tested on: NCI-H460 NSCLC
NCI-H522 lung = tested on: NCI-H522 lung
NCI/ADR-RES ovarian = tested on: NCI/ADR-RES ovarian
OVCAR-3 ovarian = tested on: OVCAR-3 ovarian
OVCAR-4 ovarian = tested on: OVCAR-4 ovarian
OVCAR-5 ovarian = tested on: OVCAR-5 ovarian
OVCAR-8 ovarian = tested on: OVCAR-8 ovarian
PC-3 prostate = tested on: PC-3 prostate
RPMI-8226 leukemia = tested on: RPMI-8226 leukemia
RXF 393 renal = tested on: RXF 393 renal
SF-268 CNS = tested on: SF-268 CNS
SF-295 CNS = tested on: SF-295 CNS
SF-539 CNS = tested on: SF-539 CNS
SK-MEL-28 melanoma = tested on: SK-MEL-28 melanoma
SK-MEL-5 melanoma = tested on: SK-MEL-5 melanoma
SK-OV-3 ovarian = tested on: SK-OV-3 ovarian
SN12C renal = tested on: SN12C renal
SNB-19 CNS = tested on: SNB-19 CNS
SNB-75 CNS = tested on: SNB-75 CNS
SR leukemia = tested on: SR leukemia
SW-620 colon = tested on: SW-620 colon
T-47D breast = tested on: T-47D breast
TK-10 renal = tested on: TK-10 renal
U251 glioblastoma = tested on: U251 glioblastoma
UACC-257 melanoma = tested on: UACC-257 melanoma
UACC-62 melanoma = tested on: UACC-62 melanoma
UO-31 renal = tested on: UO-31 renal

## C[C@@]1(C(=O)Nc2ccc(F)nc2)CCCN1c1nc(Nc2cc(C3CC3)[nH]n2)c2cccn2n1
786-0 renal
  GI50: 2.12 µM
  TGI: 11.3 µM
A498 renal
  GI50: 1.72 µM
  TGI: 17.1 µM
A549 NSCLC
  GI50: 0.63 µM
  TGI: 15.4 µM
ACHN renal
  GI50: 2.43 µM
  TGI: 16 µM
BT-549 breast
  GI50: 1.71 µM
  TGI: 7.62 µM
CAKI-1 renal
  GI50: 1.3 µM
  TGI: 5.28 µM
COLO 205 colon
  GI50: < 0.01 µM
  TGI: 0.189 µM
DU-145 prostate
  GI50: 0.995 µM
  TGI: 12.5 µM
EKVX NSCLC
  GI50: 0.681 µM
  TGI: 9.59 µM
HCC-2998 colon
  GI50: 10.6 µM
  TGI: 22.7 µM
HCT-15 colon
  GI50: 0.703 µM
  TGI: 12.2 µM
HL-60(TB) leukemia
  GI50: < 0.01 µM
  TGI: 0.126 µM
HOP-62 NSCLC
  GI50: 1.87 µM
  TGI: 13.2 µM
HOP-92 NSCLC
  GI50: 0.289 µM
  TGI: 2.68 µM
HS 578T breast
  GI50: 1.51 µM
  TGI: 3.8 µM
HT29 colon
  GI50: < 0.01 µM
  TGI: 10.5 µM
IGROV1 ovarian
  GI50: 1.72 µM
  TGI: 7.19 µM
K-562 leukemia
  GI50: 3.81 µM
  TGI: 15.4 µM
KM12 colon
  GI50: 0.03 µM
  TGI: 0.204 µM
LOX IMVI melanoma
  GI50: 1.93 µM
  TGI: 13 µM
M14 melanoma
  GI50: 1.7 µM
  TGI: 16.8 µM
MALME-3M melanoma
  GI50: 0.356 µM
  TGI: 16.6 µM
MCF7 breast
  GI50: 0.0388 µM
  TGI: 12.4 µM
MDA-MB-231 breast
  GI50: 1.58 µM
  TGI: 12.5 µM
MDA-MB-435 melanoma
  GI50: 14.4 µM
  TGI: 27.6 µM
MDA-MB-468 breast
  GI50: 0.246 µM
  TGI: 0.561 µM
MOLT-4 leukemia
  GI50: 0.224 µM
  TGI: 0.439 µM
NCI-H226 lung
  GI50: 0.557 µM
  TGI: 7.05 µM
NCI-H23 lung
  GI50: 0.223 µM
  TGI: 3.87 µM
NCI-H322M lung
  GI50: 3.87 µM
  TGI: 20.1 µM
NCI-H460 NSCLC
  GI50: 0.239 µM
  TGI: 1.17 µM
NCI-H522 lung
  GI50: 0.864 µM
  TGI: 7.46 µM
NCI/ADR-RES ovarian
  GI50: 2.36 µM
  TGI: 10.7 µM
OVCAR-3 ovarian
  GI50: 0.842 µM
  TGI: 9.82 µM
OVCAR-4 ovarian
  GI50: 0.935 µM
  TGI: 4.21 µM
OVCAR-5 ovarian
  GI50: 1.5 µM
  TGI: 8.62 µM
OVCAR-8 ovarian
  GI50: 4.09 µM
  TGI: 18.7 µM
PC-3 prostate
  GI50: 2.67 µM
  TGI: 14.4 µM
RPMI-8226 leukemia
  GI50: 0.201 µM
  TGI: 0.491 µM
RXF 393 renal
  GI50: 2.25 µM
  TGI: 12.7 µM
SF-268 CNS
  GI50: 1.44 µM
  TGI: 6.55 µM
SF-295 CNS
  GI50: 0.837 µM
  TGI: 4.19 µM
SF-539 CNS
  GI50: 1.91 µM
  TGI: 11 µM
SK-MEL-28 melanoma
  GI50: 10.6 µM
  TGI: 22.7 µM
SK-MEL-5 melanoma
  GI50: 1.78 µM
  TGI: 15.9 µM
SK-OV-3 ovarian
  GI50: 2.69 µM
  TGI: 14 µM
SN12C renal
  GI50: 2.07 µM
  TGI: 6.96 µM
SNB-19 CNS
  GI50: 8.33 µM
  TGI: 29.3 µM
SNB-75 CNS
  GI50: 1.14 µM
  TGI: 3.57 µM
SR leukemia
  GI50: 0.18 µM
  TGI: 0.336 µM
SW-620 colon
  GI50: 0.644 µM
  TGI: 14.4 µM
T-47D breast
  GI50: 0.651 µM
  TGI: 14.3 µM
TK-10 renal
  GI50: 2.49 µM
  TGI: 20.1 µM
U251 glioblastoma
  GI50: 5.48 µM
  TGI: 19.4 µM
UACC-257 melanoma
  GI50: 0.694 µM
  TGI: 16.4 µM
UACC-62 melanoma
  GI50: 1.75 µM
  TGI: 15.7 µM
UO-31 renal
  GI50: 3.75 µM
  TGI: 18.2 µM
